Measurements as given in patent publication US4193997A, “Thieno[2,3-c] and [3,2-c]pyridines, process for their preparation and therapeutic applications thereof” (Parcor, priority 1977, dated 1980).

Assays:
[1] = tested on: collagen-induced blood-platelet aggregation; assay: Collagen-induced blood-platelet aggregation after oral treatment of rats; assay type: in vivo, Wistar rats; settings: Rattus norvegicus, 100 mg/kg oral, 3 hrs after treatment, collagen (bovine tendon extract), read-out: Percent inhibition of blood-platelet aggregation, Collagen
Procedure: (§1) Blood is taken from the jugular vein of Wistar rats. From this citrated blood, and after centrifugation, a plasma containing 600,000±20,000 blood-platelets per mm 3 is reconstituted, which plasma is used in all aggregation determinations.
(§2) 0.4 ml plasma is placed in a siliconized tube provided with a magnet bar which is also siliconized. The tube is introduced into an aggregometer connected to an apparatus which records the optical density variations. When light transmission reaches a stable value, 0.5 ml of a solution containing 10 μM A.D.P. (adenosine diphosphate) is introduced into the tube.
The A.D.P. solution is substituted with a collagen solution (bovine tendon extract).
(§3) Different groups of 20 rats each are used. Each group is orally administered a test derivative, at a dosage of 100 mg/kg. The results obtained during both tests are reported in following Table I which indicates the percent inhibition of blood-platelet aggregation obtained with respect to the reference group, 3 hrs after treatment.

[2] = tested on: A.D.P.-induced blood-platelet aggregation; assay: A.D.P.-induced blood-platelet aggregation after oral treatment of rats; assay type: in vivo, Wistar rats; settings: Rattus norvegicus, 100 mg/kg oral, 3 hrs after treatment, 10 μM A.D.P. solution, read-out: Percent inhibition of blood-platelet aggregation, A.D.P.
Procedure: as §1, §2
Blood-platelet aggregation then induces an increase of light transmission, followed by a decrease subsequent to the disaggregation stage.
The maximal optical density variation thus determined characterizes the extent of the aggregation.
as §3

Red blood cells [3] = assay: Anti-sludge in vitro, "preventive" treatment (protamine sulfate agglomeration of red blood cells); assay type: cell-based, rats; settings: for percent agglomerates formed by 5 RBC: controls 6 or 8; for percent agglomerates formed by 4 RBC: controls 9 or 8; for percent agglomerates formed by 3 RBC: controls 13 or 14; for percent agglomerates formed by 2 RBC: controls 17 or 16; for percent free red blood cells (size 1): controls 32 (n°3, 4, 6) or 30 (n°11, 12, 17)
Procedure: (§4) Red blood cells of rats are washed three times and diluted to 1/250 concentration in physiological saline. In each of 5 tubes are placed 0.6 ml of this suspension and 0.2 ml physiological saline. Into each tube is then added, respectively, an amount of 0, 25, 50, 100 and 200 μg of the test derivative contained in 0.2 ml of solution. After incubation for one hour at 37° C., 0.2 ml of a solution containing 125 μg/ml protamine sulfate is added thereto, and the resulting material is further incubated for 0.5 hour at 37° C. The red blood cells of each tube are then examined with a Mallasez cell, and the percent free red blood cells (RBC) and the percent agglomerates formed by 2, 3, 4, 5 . . . RBC are noted.

Red blood cells [4] = assay: Anti-sludge in vitro, "curative" procedure (protamine sulfate agglomeration of red blood cells); assay type: cell-based, rats; settings: 25 μg; for percent aggregates, size of agglomerates 4: reference tests 11; for percent aggregates, size of agglomerates 3: reference tests 15 or 16; for percent aggregates, size of agglomerates 2: reference tests 19; for percent aggregates, size of agglomerates 1: reference tests 33 (n°3, 4, 6) or 30 (n°11, 12, 17)
Procedure: as §4
The test was repeated according to a "curative" procedure. The red blood cells were first contacted with the protamine sulfate and, after incubation for 0.5 hour, 0.2 ml containing 25 μg of the test derivative were added thereto, after which the material was further incubated for one hour at 37° C.

O=C1c2ccsc2CCN1Cc1ccccc1Cl [Derivative n°1, 4-Oxo-5-o.chlorobenzyl-4,5,6,7-tetrahydro-thieno[3,2-c]pyridine]
inhibition at 100 mg/kg [1]: 90%
inhibition at 100 mg/kg [2]: 60.4%

O=C1c2ccsc2CCN1Cc1ccc(Cl)cc1 [Derivative n°3, 4-Oxo-5-p.chlorobenzyl-4,5,6,7-tetrahydro-thieno[3,2-c]pyridine]
percent agglomerates formed by 5 RBC (Red blood cells [3]; 25 μg per tube): 1%
percent agglomerates formed by 4 RBC (Red blood cells [3]; 25 μg per tube): 2%
percent agglomerates formed by 3 RBC (Red blood cells [3]; 25 μg per tube): 10%
percent agglomerates formed by 2 RBC (Red blood cells [3]; 25 μg per tube): 24%
percent free red blood cells (size 1) (Red blood cells [3]; 25 μg per tube): 63%
percent agglomerates formed by 4 RBC (Red blood cells [3]; 50 μg per tube): 2%
percent agglomerates formed by 3 RBC (Red blood cells [3]; 50 μg per tube): 7%
percent agglomerates formed by 2 RBC (Red blood cells [3]; 50 μg per tube): 25%
percent free red blood cells (size 1) (Red blood cells [3]; 50 μg per tube): 66%
percent agglomerates formed by 5 RBC (Red blood cells [3]; 100 μg per tube): 1%
percent agglomerates formed by 4 RBC (Red blood cells [3]; 100 μg per tube): 1%
percent agglomerates formed by 3 RBC (Red blood cells [3]; 100 μg per tube): 6%
percent agglomerates formed by 2 RBC (Red blood cells [3]; 100 μg per tube): 15%
percent free red blood cells (size 1) (Red blood cells [3]; 100 μg per tube): 77%
percent agglomerates formed by 4 RBC (Red blood cells [3]; 200 μg per tube): 1%
percent agglomerates formed by 3 RBC (Red blood cells [3]; 200 μg per tube): 1%
percent agglomerates formed by 2 RBC (Red blood cells [3]; 200 μg per tube): 10%
percent free red blood cells (size 1) (Red blood cells [3]; 200 μg per tube): 88%
inhibition at 100 mg/kg [1]: 91.4%
inhibition at 100 mg/kg [2]: 60.8%
percent aggregates, size of agglomerates 4 (Red blood cells [4]): 1%
percent aggregates, size of agglomerates 3 (Red blood cells [4]): 5%
percent aggregates, size of agglomerates 2 (Red blood cells [4]): 13%
percent aggregates, size of agglomerates 1 (Red blood cells [4]): 81%

O=C1c2sccc2CCN1Cc1ccccc1Cl [Derivative n°4, 6-o.Chlorobenzyl-7-oxo-4,5,6,7-tetrahydro-thieno[2,3-c]-pyridine]
percent agglomerates formed by 5 RBC (Red blood cells [3]; 25 μg per tube): 2%
percent agglomerates formed by 4 RBC (Red blood cells [3]; 25 μg per tube): 3%
percent agglomerates formed by 3 RBC (Red blood cells [3]; 25 μg per tube): 7%
percent agglomerates formed by 2 RBC (Red blood cells [3]; 25 μg per tube): 20%
percent free red blood cells (size 1) (Red blood cells [3]; 25 μg per tube): 68%
percent agglomerates formed by 5 RBC (Red blood cells [3]; 50 μg per tube): 1%
percent agglomerates formed by 4 RBC (Red blood cells [3]; 50 μg per tube): 2%
percent agglomerates formed by 3 RBC (Red blood cells [3]; 50 μg per tube): 4%
percent agglomerates formed by 2 RBC (Red blood cells [3]; 50 μg per tube): 22%
percent free red blood cells (size 1) (Red blood cells [3]; 50 μg per tube): 71%
percent agglomerates formed by 4 RBC (Red blood cells [3]; 100 μg per tube): 2%
percent agglomerates formed by 3 RBC (Red blood cells [3]; 100 μg per tube): 1%
percent agglomerates formed by 2 RBC (Red blood cells [3]; 100 μg per tube): 17%
percent free red blood cells (size 1) (Red blood cells [3]; 100 μg per tube): 80%
percent agglomerates formed by 3 RBC (Red blood cells [3]; 200 μg per tube): 1%
percent agglomerates formed by 2 RBC (Red blood cells [3]; 200 μg per tube): 8%
percent free red blood cells (size 1) (Red blood cells [3]; 200 μg per tube): 91%
inhibition at 100 mg/kg [1]: 93.1%
inhibition at 100 mg/kg [2]: 62.9%
percent aggregates, size of agglomerates 5 (Red blood cells [4]; reference tests 8 or 9): 1%
percent aggregates, size of agglomerates 4 (Red blood cells [4]): 1%
percent aggregates, size of agglomerates 3 (Red blood cells [4]): 3%
percent aggregates, size of agglomerates 2 (Red blood cells [4]): 17%
percent aggregates, size of agglomerates 1 (Red blood cells [4]): 78%

O=C(c1ccccc1Cl)N1CCc2sccc2C1=O [Derivative n°6, 4-Oxo-5-o.chlorobenzoyl-4,5,6,7-tetrahydro-thieno[3,2-c]pyridine]
percent agglomerates formed by 5 RBC (Red blood cells [3]; 25 μg per tube): 4%
percent agglomerates formed by 4 RBC (Red blood cells [3]; 25 μg per tube): 5%
percent agglomerates formed by 3 RBC (Red blood cells [3]; 25 μg per tube): 4%
percent agglomerates formed by 2 RBC (Red blood cells [3]; 25 μg per tube): 22%
percent free red blood cells (size 1) (Red blood cells [3]; 25 μg per tube): 65%
percent agglomerates formed by 5 RBC (Red blood cells [3]; 50 μg per tube): 1%
percent agglomerates formed by 4 RBC (Red blood cells [3]; 50 μg per tube): 3%
percent agglomerates formed by 3 RBC (Red blood cells [3]; 50 μg per tube): 5%
percent agglomerates formed by 2 RBC (Red blood cells [3]; 50 μg per tube): 25%
percent free red blood cells (size 1) (Red blood cells [3]; 50 μg per tube): 66%
percent agglomerates formed by 5 RBC (Red blood cells [3]; 100 μg per tube): 1%
percent agglomerates formed by 4 RBC (Red blood cells [3]; 100 μg per tube): 0%
percent agglomerates formed by 3 RBC (Red blood cells [3]; 100 μg per tube): 3%
percent agglomerates formed by 2 RBC (Red blood cells [3]; 100 μg per tube): 13%
percent free red blood cells (size 1) (Red blood cells [3]; 100 μg per tube): 83%
percent agglomerates formed by 3 RBC (Red blood cells [3]; 200 μg per tube): 1%
percent agglomerates formed by 2 RBC (Red blood cells [3]; 200 μg per tube): 8%
percent free red blood cells (size 1) (Red blood cells [3]; 200 μg per tube): 91%
inhibition at 100 mg/kg [1]: 91.5%
inhibition at 100 mg/kg [2]: 61.7%
percent aggregates, size of agglomerates 4 (Red blood cells [4]): 2%
percent aggregates, size of agglomerates 3 (Red blood cells [4]): 2%
percent aggregates, size of agglomerates 2 (Red blood cells [4]): 15%
percent aggregates, size of agglomerates 1 (Red blood cells [4]): 81%

N#Cc1ccccc1CN1CCc2sccc2C1=O [Derivative n°8, 4-Oxo-5-o.cyanobenzyl-4,5,6,7-tetrahydro-thieno[3,2-c]pyridine]
inhibition at 100 mg/kg [1]: 91%
inhibition at 100 mg/kg [2]: 60.8%

COC(=O)c1ccccc1CN1CCc2sccc2C1=O [Derivative n°9, 4-Oxo-5-o,carbomethoxybenzyl-4,5,6,7-tetrahydro-thieno[3,2-c]-pyridine]
inhibition at 100 mg/kg [1]: 90.8%
inhibition at 100 mg/kg [2]: 61.6%

O=C(c1ccccc1Cl)N1CCc2ccsc2C1=O [Derivative n°10, 6-o.Chlorobenzoyl-7-oxo-4,5,6,7-tetrahydro-thieno[2,3-c]pyridine]
inhibition at 100 mg/kg [1]: 92.2%
inhibition at 100 mg/kg [2]: 60.9%

O=C(OCc1ccccc1)C1Cc2sccc2C(=O)N1Cc1ccccc1 (stereo not shown) [Derivative n°13, 4-Oxo-6-benzyloxycarbonyl-5-benzyl-4,5,6,7-tetrahydro-thieno[3,2-c]pyridine]
inhibition at 100 mg/kg [1]: 91.9%
inhibition at 100 mg/kg [2]: 63.4%

O=C(O)C1Cc2sccc2C(=O)N1Cc1ccccc1 (stereo not shown) [Derivative n°14, 4-Oxo-6-carboxy-5-benzyl-4,5,6,7-tetrahydro-thieno[3,2-c]-pyridine]
inhibition at 100 mg/kg [1]: 93%
inhibition at 100 mg/kg [2]: 60.5%

COc1cc(CN2C(=O)c3ccsc3CC2C(=O)O)cc(OC)c1OC (stereo not shown) [Derivative n°16, 4-Oxo-6-carboxy-5-(3,4,5-trimethoxy-benzyl)-4,5,6,7-tetrahydro-thieno[3,2-c]pyridine]
inhibition at 100 mg/kg [1]: 90.5%
inhibition at 100 mg/kg [2]: 62.4%

O=C1NCC(c2ccccc2)c2ccsc21 (stereo not shown) [Derivative n°18, 4-Phenyl-7-oxo-4,5,6,7-tetrahydro-thieno[2,3-c]pyridine]
inhibition at 100 mg/kg [1]: 91.4%
inhibition at 100 mg/kg [2]: 60.6%
